Key:
[1] = iv administration; AU-81889/87; cited from earlier work
Swiss Webster mice = experiment: Acute toxicity (LD50), iv administration to mice; assay type: in vivo; details: 500 mM Gd chelate alone or with 25 mM added Ca chelate
Experimental: Acute toxicity (LD50) values were determined for compositions comprising 500 mM Gd DTPA-APD alone or together with 25 mM of the calcium chelate of DTPA-APD and, for further comparison, for compositions comprising 500 mM Gd DTPA-dimeglumine alone or together with 25 mM of a calcium chelate of DTPA or a DTPA-bisamide (the bismethylamide. The acute toxicities were determined by iv administrations of the compositions to Swiss Webster mice.

CNC[C@H](O)[C@@H](O)[C@H](O)[C@H](O)CO.CNC[C@H](O)[C@@H](O)[C@H](O)[C@H](O)CO.O=C([O-])CN(CCN(CC(=O)[O-])CC(=O)O)CCN(CC(=O)[O-])CC(=O)O.[Gd+3] [Gd DTPA]
gadolinium retention (in words) [1]: gadolinium retention following iv administration
LD50 (iv mice) (Swiss Webster mice): 5.5 mmol/kg
